Assay results reported in ChEMBL document CHEMBL3120150, “Syntheses and structure-activity relationships for some triazolyl p38α MAPK inhibitors” (Bioorg Med Chem Lett, 2014).
Calls of active or inactive are those of the source. The calls are words filed in the database; no cut-off is given here.

What was measured:
[1] = molecular target: Mitogen-activated protein kinase 14 (Homo sapiens, UniProt Q16539); assay: Inhibition of p38a MAPK (unknown origin) by radiometric assay
HUVEC [2] = assay: Inhibition of TNFalpha-induced COX2 gene expression in HUVEC at 10 uM; type: functional, cell-based; conditions: Homo sapiens
HUVEC [3] = assay: Inhibition of TNFalpha-induced IL-6 gene expression in HUVEC at 10 uM; type: functional, cell-based; conditions: Homo sapiens

Mitogen-activated protein kinase 14, sequence (Q16539 whole entry): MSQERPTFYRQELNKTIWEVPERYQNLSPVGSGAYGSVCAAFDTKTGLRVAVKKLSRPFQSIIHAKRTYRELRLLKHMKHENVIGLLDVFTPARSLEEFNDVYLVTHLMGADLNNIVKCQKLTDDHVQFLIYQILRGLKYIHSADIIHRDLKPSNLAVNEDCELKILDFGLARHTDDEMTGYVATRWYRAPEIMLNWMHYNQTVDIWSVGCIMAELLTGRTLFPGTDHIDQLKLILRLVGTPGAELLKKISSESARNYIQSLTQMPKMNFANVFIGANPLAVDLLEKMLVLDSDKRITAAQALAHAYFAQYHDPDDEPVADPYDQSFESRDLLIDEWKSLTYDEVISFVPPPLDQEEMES

Cn1c(-c2cn(CCOCCOCCOCCO)nn2)nc(-c2ccc(F)cc2)c1-c1ccncc1
IC50 [1]: 11.2 µM

CC(=O)OC[C@H]1O[C@H](OC(C)=O)[C@H](n2cc(-c3nc(-c4ccc(F)cc4)c(-c4ccncc4)o3)nn2)[C@@H](OC(C)=O)[C@@H]1OC(C)=O
IC50 [1]: > 100 µM

Cn1c(-c2cn(CC(=O)O)nn2)nc(-c2ccc(F)cc2)c1-c1ccncc1 [listing 1 of 2 here]
IC50 [1]: 0.74 µM

Cn1c(-c2cn(C(C)(C)C(=O)O)nn2)nc(-c2ccc(F)cc2)c1-c1ccncc1
IC50 [1]: 1.49 µM

Cn1c(-c2cn(CC(=O)NCCO)nn2)nc(-c2ccc(F)cc2)c1-c1ccncc1
IC50 [1]: 0.89 µM

Cn1c(-c2cn(C[C@H]3O[C@@H](O)[C@H](O)[C@@H](O)[C@@H]3O)nn2)nc(-c2ccc(F)cc2)c1-c1ccncc1
IC50 [1]: 0.4 µM

Cn1c(-c2cn([C@@H]3[C@@H](O)[C@H](O)[C@@H](CO)O[C@@H]3O)nn2)nc(-c2ccc(F)cc2)c1-c1ccncc1
IC50 [1]: 0.71 µM
inhibition (HUVEC [2]): Active
inhibition (HUVEC [3]): Active

Cn1c(-c2cn(CCOCCOCCOCCOCCOCCOCCOCCO)nn2)nc(-c2ccc(F)cc2)c1-c1ccncc1
IC50 [1]: 11.6 µM

Fc1ccc(-c2nc(-c3cn(Cc4ccccc4)nn3)oc2-c2ccncc2)cc1
IC50 [1]: 158 µM

Cn1c(-c2cn(CC(=O)N3CCN(CCO)CC3)nn2)nc(-c2ccc(F)cc2)c1-c1ccncc1
IC50 [1]: 3.8 µM

OC[C@H]1O[C@H](O)[C@H](n2cc(-c3nc(-c4ccc(F)cc4)c(-c4ccncc4)o3)nn2)[C@@H](O)[C@@H]1O
IC50 [1]: 1.19 µM

O=C(O)c1ccc(-n2cc(-c3nc(-c4ccc(F)cc4)c(-c4ccncc4)o3)nn2)cc1
IC50 [1]: 0.19 µM

C#Cc1nc(-c2ccc(F)cc2)c(-c2ccncc2)n1C
IC50 [1]: 0.73 µM

C[C@H](Nc1nccc(-c2c(-c3ccc(F)cc3)nc3nc(N)ccn23)n1)c1ccccc1
IC50 [1]: 0.006 µM

CCOC(=O)Cn1cc(-c2nc(-c3ccc(F)cc3)c(-c3ccncc3)n2C)nn1
IC50 [1]: 1.87 µM

O=C(c1ccc(-n2cc(-c3nc(-c4ccc(F)cc4)c(-c4ccncc4)o3)nn2)cc1)N1CCN(CCO)CC1
IC50 [1]: 2.4 µM

Cn1c(-c2cn(-c3cccc(C(=O)O)c3)nn2)nc(-c2ccc(F)cc2)c1-c1ccncc1 [listing 1 of 2 here]
IC50 [1]: 0.185 µM

C[C@@H](C(=O)O)n1cc(-c2nc(-c3ccc(F)cc3)c(-c3ccncc3)o2)nn1
IC50 [1]: 11.4 µM

Cn1c(C#CCO)nc(-c2ccc(F)cc2)c1-c1ccncc1
IC50 [1]: 0.46 µM

Cn1c(-c2cn(CCOP(=O)(O)O)nn2)nc(-c2ccc(F)cc2)c1-c1ccncc1
IC50 [1]: 0.25 µM

Cn1c(-c2cn([C@@H](CC(=O)O)C(=O)O)nn2)nc(-c2ccc(F)cc2)c1-c1ccncc1
IC50 [1]: 2.3 µM

Cn1c(-c2cnnn2CC(=O)O)nc(-c2ccc(F)cc2)c1-c1ccncc1
IC50 [1]: 4.2 µM

Cn1c(-c2cn([C@H]3CCNC[C@@H]3F)nn2)nc(-c2ccc(F)cc2)c1-c1ccncc1
IC50 [1]: 0.096 µM
inhibition (HUVEC [2]): Active
inhibition (HUVEC [3]): Active

Cn1c(-c2cn(CCO)nn2)nc(-c2ccc(F)cc2)c1-c1ccncc1
IC50 [1]: 0.5 µM

Cn1c(-c2c[nH]nn2)nc(-c2ccc(F)cc2)c1-c1ccncc1
IC50 [1]: 0.14 µM

Cn1c(-c2cn(-c3cccc(C(=O)NCCCO)c3)nn2)nc(-c2ccc(F)cc2)c1-c1ccncc1
IC50 [1]: 0.29 µM

O[C@@H]1[C@@H](O)[C@H](O)O[C@H](Cn2cc(-c3nc(-c4ccc(F)cc4)c(-c4ccncc4)o3)nn2)[C@H]1O
IC50 [1]: 5.73 µM

Cn1cnc(-c2ccc(F)cc2)c1-c1ccncc1
IC50 [1]: 0.43 µM
inhibition (HUVEC [2]): Active
inhibition (HUVEC [3]): Active

CCOP(=O)(CCn1cc(-c2nc(-c3ccc(F)cc3)c(-c3ccncc3)n2C)nn1)OCC
IC50 [1]: > 100 µM

Cn1c(-c2cn(-c3ccc(C(=O)O)cc3)nn2)nc(-c2ccc(F)cc2)c1-c1ccncc1
IC50 [1]: 0.14 µM

Cn1c(-c2cn(-c3ccccc3O)nn2)nc(-c2ccc(F)cc2)c1-c1ccncc1
IC50 [1]: 1.59 µM

Cn1c(-c2cn(CC(=O)O)nn2)nc(-c2ccc(F)cc2)c1-c1ccncc1 [listing 2 of 2 here]
IC50 [1]: 0.43 µM

Cn1c(-c2cn(-c3ccccc3C(=O)O)nn2)nc(-c2ccc(F)cc2)c1-c1ccncc1
IC50 [1]: 1.53 µM

O=C(O)c1ccccc1-n1cc(-c2nc(-c3ccc(F)cc3)c(-c3ccncc3)o2)nn1
IC50 [1]: 6.51 µM

COC(=O)c1cccc(-n2cc(-c3nc(-c4ccc(F)cc4)c(-c4ccncc4)n3C)nn2)c1
IC50 [1]: 0.99 µM

Cn1c(-c2cn(-c3cccc(C(=O)O)c3)nn2)nc(-c2ccc(F)cc2)c1-c1ccncc1 [listing 2 of 2 here]
IC50 [1]: 0.091 µM

OCCOCCOCCOCCOCCOCCOCCOCCn1cc(-c2nc(-c3ccc(F)cc3)c(-c3ccncc3)o2)nn1
IC50 [1]: 23.5 µM

CN(C)c1ccc(-n2cc(-c3nc(-c4ccc(F)cc4)c(-c4ccncc4)n3C)nn2)cc1
IC50 [1]: 1.4 µM

Cn1c(-c2cn(CCP(=O)(O)O)nn2)nc(-c2ccc(F)cc2)c1-c1ccncc1
IC50 [1]: 0.35 µM

Oc1ccccc1-n1cc(-c2nc(-c3ccc(F)cc3)c(-c3ccncc3)o2)nn1
IC50 [1]: 2.17 µM

Fc1ccc(-c2nc(-c3c[nH]nn3)oc2-c2ccncc2)cc1
IC50 [1]: 0.38 µM

CCOC(=O)Cn1nncc1-c1nc(-c2ccc(F)cc2)c(-c2ccncc2)n1C
IC50 [1]: 56 µM

CN(C)c1ccc(-n2cc(-c3nc(-c4ccc(F)cc4)c(-c4ccncc4)o3)nn2)cc1
IC50 [1]: 19.5 µM

O=C(O)[C@H]1OC(n2cc(-c3nc(-c4ccc(F)cc4)c(-c4ccncc4)o3)nn2)[C@H](O)[C@@H](O)[C@@H]1O (some centres undefined)
IC50 [1]: 1.17 µM

CC(=O)OC[C@H]1O[C@H](OC(C)=O)[C@H](n2cc(-c3nc(-c4ccc(F)cc4)c(-c4ccncc4)n3C)nn2)[C@@H](OC(C)=O)[C@@H]1OC(C)=O
IC50 [1]: > 100 µM

Cn1c(-c2cn(C3O[C@H](C(=O)O)[C@@H](O)[C@H](O)[C@H]3O)nn2)nc(-c2ccc(F)cc2)c1-c1ccncc1 (some centres undefined)
IC50 [1]: 0.59 µM

OCCOCCOCCOCCn1cc(-c2nc(-c3ccc(F)cc3)c(-c3ccncc3)o2)nn1
IC50 [1]: 12.5 µM

O=C(O)Cn1cc(-c2nc(-c3ccc(F)cc3)c(-c3ccncc3)o2)nn1
IC50 [1]: 3.2 µM

Cn1c(-c2cn(CCOCCOCCOCCN)nn2)nc(-c2ccc(F)cc2)c1-c1ccncc1
IC50 [1]: 5.18 µM

C#Cc1nc(-c2ccc(F)cc2)c(-c2ccncc2)o1
IC50 [1]: 1.79 µM

C[C@@H](C(=O)O)n1cc(-c2nc(-c3ccc(F)cc3)c(-c3ccncc3)n2C)nn1
IC50 [1]: 1.44 µM

C[S+]([O-])c1ccc(-c2nc(-c3ccc(F)cc3)c(-c3ccncc3)[nH]2)cc1 (centres undefined)
inhibition (HUVEC [2]): Active
inhibition (HUVEC [3]): Active
